Reference: patent US20240067645A1, “HETEROCYCLIC COMPOUND AS DIACYLGLYCEROL KINASE INHIBITOR AND USE THEREOF” (LG CHEM, LTD., priority 2020, published 2024)

molecular target: DGKα (Homo sapiens (Human), UniProt P23743); assay: Measurement of inhibitory effect against DGKα enzyme (ADP-Glo); format: biochemical; details: DGKα enzyme, ADP-Glo luminescence, OAG/ATP substrate, 20 min room temperature; read-out: IC50
Protocol: Experimental Example: Measurement of Inhibitory Effect Against DGKα Enzyme
First, 3×OAG (3 mM)/ATP (0.45 mM) substrate solution was prepared from 1× substrate assay buffer (40 mM MOPS (pH 7.2), 20 mM MgCl2, 1 mM DTT, 0.4 mM CaCl2), 3 mM sodium deoxycholate, 100 mM NaCl, 0.1 mg/mL BSA, 0.12% NP-40), and vortexed thoroughly for 3 minutes to induce detergent-lipid micelle formation. Then, 3×DGKα (7.5 nM) enzyme solution was prepared from 2× enzyme assay buffer (80 mM MOPS (pH 7.2), 2 mM DTT, 200 mM NaCl, 0.2 mg/mL BSA) and vortexed for a short time.
After preparing the above two solutions, a half-area opaque 96-well assay plate was prepared, and 10 μL of 3× diluted compound solution (30 μM to 0 μM) was transferred to each well. Next, 10 μL of 3×DGK enzyme solution was transferred to the same plate, mixed by pipetting, and then 10 μL of 3×OAG/ATP substrate solution was added to the assay plate and mixed well. The plate was incubated at room temperature for 20 minutes for the enzyme reaction. Next, 15 μL of ADP-Glo reagent was added to each well and mixed by pipetting, followed by incubating the plate at room temperature for 40 minutes to deplete the remaining ATPs. After this step, 30 μL of kinase detection reagent was added and mixed, and the plate was incubated at room temperature for an additional 20 minutes and luminescence was measured by Envision to calculate the IC50 value of each compound.
The measurement results are represented in Table 1 (+: IC50>5 μM, ++: 5 μM>IC50>300 nM, +++: IC50<300 nM).

DGKα, sequence (P23743 whole entry, species assumed): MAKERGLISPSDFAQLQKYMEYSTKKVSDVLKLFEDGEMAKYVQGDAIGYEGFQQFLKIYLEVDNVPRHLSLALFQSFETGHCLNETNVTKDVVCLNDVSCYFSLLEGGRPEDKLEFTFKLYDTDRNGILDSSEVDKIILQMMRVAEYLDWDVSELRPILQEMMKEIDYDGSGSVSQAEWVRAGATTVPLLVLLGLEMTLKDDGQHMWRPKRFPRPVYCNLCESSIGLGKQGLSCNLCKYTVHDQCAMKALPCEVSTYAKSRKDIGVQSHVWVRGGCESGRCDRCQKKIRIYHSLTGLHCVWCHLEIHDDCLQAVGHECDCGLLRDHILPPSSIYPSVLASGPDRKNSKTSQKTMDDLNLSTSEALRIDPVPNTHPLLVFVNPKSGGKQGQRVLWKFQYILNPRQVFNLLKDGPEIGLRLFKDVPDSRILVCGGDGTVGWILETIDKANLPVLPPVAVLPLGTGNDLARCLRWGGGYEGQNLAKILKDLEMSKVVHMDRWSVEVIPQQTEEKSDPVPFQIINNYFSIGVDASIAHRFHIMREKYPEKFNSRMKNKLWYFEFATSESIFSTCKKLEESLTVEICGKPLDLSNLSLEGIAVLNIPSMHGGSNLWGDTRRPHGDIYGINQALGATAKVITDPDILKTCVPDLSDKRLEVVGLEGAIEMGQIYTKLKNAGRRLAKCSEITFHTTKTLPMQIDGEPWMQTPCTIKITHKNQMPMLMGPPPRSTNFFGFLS

**Q.** With `CNC(=O)c1cnc2c(c1)n(C)c(=O)c(=O)n2C1CCN(Cc2ccc(OC(F)(F)F)cc2)CC1` [Example 65, N,1-dimethyl-2,3-dioxo-4-(1-(4-(trifluoromethoxy)benzyl)piperidin-4-yl)-1,2,3,4-tetrahydropyrido[2,3-b]pyrazine-7-carboxamide] as the molecule, how does the IC50 read?
**A.** 300 to 5000 nM

**Q.** How did the IC50 turn out when `Cn1c(=O)c(=O)n(C2CCN(Cc3ccc(OC(F)(F)F)cc3)CC2)c2ncc(C(N)=O)cc21` [Example 66, 1-methyl-2,3-dioxo-4-(1-(4-(trifluoromethoxy)benzyl)piperidin-4-yl)-1,2,3,4-tetrahydropyrido[2,3-b]pyrazine-7-carboxamide] was run?
**A.** < 300 nM

**Q.** How did the IC50 turn out when `Cc1cnc2c(c1)n(C)c(=O)c(=O)n2C1CCN(Cc2cccc(Cl)c2)CC1` [Example 67, 4-(1-(3-chlorobenzyl)piperidin-4-yl)-1,7-dimethyl-1,4-dihydropyrido[2,3-b]pyrazine-2,3-dione] was run?
**A.** < 300 nM
